Measured values as given in US10358454B2, “Marinopyrrole derivatives and methods of making and using same” (H. LEE MOFFITT CANCER CENTER AND RESEARCH INSTITUTE, INC., priority 2014, dated 2019).
“Also recorded” adds a separate entry of the source. Like-named read-outs stand apart in the source and are kept apart here.

How the values were obtained:
Mcl-1/Bim = Mcl-1/Bim (Homo sapiens, UniProt Q07820); assay: Mcl-1/Bim ELISA (GST-Mcl-1 binding to biotinylated Bim BH3 peptide); conditions: for selectivity profile Mcl-1 vs Bcl-xL in words: from Mcl-1/Bim and Bcl-xL/Bim ELISA; for fold loss of potency against Mcl-1/Bim: 1-15 and 1-13 vs 1-10, 1-14 vs 1-11, 1-16 vs 1-15, 1-12 vs 1-9, 1-22, 1-21, 1-20 vs 1-23, 1-37 and N-Me methoxy analogue vs (±)-1; for selectivity for Mcl-1 over Bcl-xL (Mcl-1/Bim over Bcl-xL/Bim): ratio of ELISA IC50 values; for fold more potent than (±)-1 (1) against Mcl-1/Bim: relative to (±)-1
Description: (§1) ELISAs were performed using a modified version of a previously described procedure (Doi K et al. J. Biol. Chem. 2012, 287, 10224-10235). Briefly, 40 nM of biotinylated Bim BH3 peptide (Biomatik) in SuperBlock blocking buffer (Pierce) was incubated in high-binding capacity streptavidin-coated plates (Pierce) for 2 h. Compounds were diluted in 120 μl of PBS containing 10 nM of GST-Mcl-1 or GST-Bcl-xL in 1.5 mL tubes for 15 min. Wells were washed with wash buffer (PBS containing 0.05% Tween-20) and then 100 μL of the compound/GST-protein mixture was transferred to the wells. The plates were incubated for 2 h, and then the wells were washed with wash buffer. HRP-conjugated anti-GST antibody (Bethyl Laboratories) was diluted 1:2000 in SuperBlock and 100 μL was transferred to each well. The plate was incubated for 1 h, and then the wells were washed with wash buffer followed by PBS. 100 μL of SureBlue TMB Microwell Peroxidase Substrate (VWR) was added to each well and plates were developed for 5-10 min. 100 μL of 1 N HCl was added to each well to stop the reaction and absorbance was read at 450 nm using a μQuant plate reader (Bio-Tek).
(§2) ELISAs were performed using a similar procedure as previously described (Doi K, et al. J. Biol. Chem. 2012, 287, 10224-10235). Briefly, 40 nM of biotinylated Bim BH3 peptide (Biomatik) in SuperBlock blocking buffer (Pierce) was incubated in high-binding capacity streptavidin-coated plates (Pierce) for 2 h. Compounds were diluted in 120 μl of PBS containing 10 nM of GST-Mcl-1 or GST-Bcl-xL in 1.5 mL tubes for 15 min. Wells were washed with wash buffer (PBS containing 0.05% Tween-20) and then 100 μL of the compound/GST-protein mixture was transferred to the wells. The plates were incubated for 2 h, and then wells were washed with wash buffer. HRP-conjugated anti-GST antibody (Bethyl Laboratories) was diluted 1:2000 in SuperBlock and 100 μL was transferred to each well. The plate was incubated for 1 h, and then wells were washed with wash buffer followed by PBS. 100 μL of SureBlue TMB Microwell Peroxidase Substrate (VWR) was added to each well and plates were developed for 5-10 min. 100 μL of 1 N HCl was added to each well to stop the reaction and absorbance was read at 450 nm using μQuant plate reader (Bio-Tek).

Bcl-xL/Bim = Bcl-xL/Bim (Homo sapiens, UniProt Q07817); assay: Bcl-xL/Bim ELISA (GST-Bcl-xL binding to biotinylated Bim BH3 peptide); conditions: for fold more potent than (±)-1 (1) against Bcl-xL/Bim: relative to (±)-1
Description: as §1, §2

[1] = Table 3-A structure I, Mcl-1 at 10 nM, n ≥ 3, read-out: Mcl-1-Bim IC50 (average ± SEM)
[2] = read-out: IC50 to inhibit Bcl-xL/Bim binding
[3] = Table 2-B, n ≥ 3, read-out: Mcl-1/Bim IC50 (average ± SEM)
[4] = Table 3-A structure I, Bcl-xL at 10 nM, n ≥ 3, read-out: Bcl-xL-Bim IC50 (average ± SEM)
[5] = Table 2-B, n ≥ 3 unless specified, read-out: Bcl-xL/Bim IC50 (average ± SEM)
[6] = Table 2-A, n ≥ 3, read-out: Mcl-1/Bim IC50 (average ± SEM)
[7] = Table 3-B structure II, n ≥ 3, read-out: Mcl-1-Bim IC50 (average ± SEM)
[8] = read-out: IC50 to inhibit the binding of Mcl-1 to Bim
[9] = Table 2-A, n ≥ 3, read-out: Bcl-xL/Bim IC50 (average ± SEM)
[10] = Table 3-B structure II, n ≥ 3, read-out: Bcl-xL-Bim IC50 (average ± SEM)
[11] = Table 1, Mcl-1 at 10 nM, n ≥ 3, read-out: Mcl-1-Bim IC50 (average ± SEM)
[12] = Table 1, Bcl-xL at 10 nM, n ≥ 3, read-out: Bcl-xL-Bim IC50 (average ± SEM)
[13] = Table 3-C structure IV, n ≥ 3, read-out: Mcl-1-Bim IC50 (average ± SEM)
[14] = Table 3-C structure IV, n ≥ 3 (IV-1: n = 2), read-out: Bcl-xL-Bim IC50 (average ± SEM)

Bcl-xL/Bim, sequence (Q07817 whole entry): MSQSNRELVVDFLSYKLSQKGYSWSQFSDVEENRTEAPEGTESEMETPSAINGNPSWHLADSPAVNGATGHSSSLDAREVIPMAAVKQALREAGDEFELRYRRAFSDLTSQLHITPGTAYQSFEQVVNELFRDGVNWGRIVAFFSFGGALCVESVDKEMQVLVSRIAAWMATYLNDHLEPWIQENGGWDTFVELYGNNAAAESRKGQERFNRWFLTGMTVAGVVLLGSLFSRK
Mcl-1/Bim, sequence (Q07820 whole entry): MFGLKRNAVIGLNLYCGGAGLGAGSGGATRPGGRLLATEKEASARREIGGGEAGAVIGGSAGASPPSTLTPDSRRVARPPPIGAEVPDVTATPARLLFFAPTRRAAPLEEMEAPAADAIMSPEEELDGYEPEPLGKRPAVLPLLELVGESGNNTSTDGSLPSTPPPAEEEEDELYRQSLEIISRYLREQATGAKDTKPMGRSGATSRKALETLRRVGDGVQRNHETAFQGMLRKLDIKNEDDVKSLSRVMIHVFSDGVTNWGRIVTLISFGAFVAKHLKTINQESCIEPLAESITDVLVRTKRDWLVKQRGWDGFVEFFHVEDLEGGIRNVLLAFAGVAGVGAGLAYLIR

Structure (SMILES): O=C(c1ccc(SCc2ccccc2)cc1O)c1[nH]c(Cl)c(Cl)c1-n1c(C(=O)c2ccc(SCc3ccccc3)cc2O)cc(Cl)c1Cl [Compound 1-10, (4,4′,5,5′-Tetrachloro-1′H-1,3′-bipyrrole-2,2′-diyl)bis(((2-hydroxy-4-benzylthio)phenyl)methanone)]
- IC50 (Mcl-1/Bim; [1]): 0.7 ± 0.2 µM
- selectivity profile Mcl-1 vs Bcl-xL in words (Mcl-1/Bim): most potent dual Mcl-1 and Bcl-xL antagonists
- IC50 (Bcl-xL/Bim; [2]): 0.6 µM

Structure (SMILES): COc1ccc(CSc2ccc(C(=O)c3[nH]c(Cl)c(Cl)c3-n3c(C(=O)c4ccc(SCc5ccc(OC)cc5)cc4O)cc(Cl)c3Cl)c(O)c2)cc1 [Compound 1-11]
- IC50 (Mcl-1/Bim; [3]): 0.7 ± 0.1 µM
- IC50 (Bcl-xL/Bim; [4]): 0.6 ± 0.1 µM

Structure (SMILES): CCOC(=O)CS(=O)(=O)c1ccc(C(=O)c2[nH]c(Cl)c(Cl)c2-n2c(C(=O)c3ccc(S(=O)(=O)CC(=O)OCC)cc3O)cc(Cl)c2Cl)c(O)c1 [Compound 1-12]
- fold loss of potency against Mcl-1/Bim (Mcl-1/Bim): 21 fold
- IC50 (Mcl-1/Bim; [3]): 37.3 ± 3.1 µM
- IC50 (Bcl-xL/Bim; [5]): > 50 µM

Structure (SMILES): O=C(c1ccc(S(=O)(=O)Cc2ccccc2)cc1O)c1[nH]c(Cl)c(Cl)c1-n1c(C(=O)c2ccc(S(=O)(=O)Cc3ccccc3)cc2O)cc(Cl)c1Cl [Compound 1-13, (4,4′,5,5′-Tetrachloro-1′H-1,3′-bipyrrole-2,2′-diyl)bis(((2-hydroxy-4-benzylsulfonyl)phenyl)methanone)]
- fold loss of potency against Mcl-1/Bim (Mcl-1/Bim): 16 fold
- IC50 (Mcl-1/Bim; [3]): 11.2 ± 4 µM
- IC50 (Mcl-1/Bim; [1]): 7.3 ± 1.4 µM
- IC50 (Bcl-xL/Bim; [4]): 69.3 ± 5.8 µM

Structure (SMILES): O=C(O)CSc1ccc(C(=O)c2[nH]c(Cl)c(Cl)c2-n2c(C(=O)c3ccc(SCC(=O)O)cc3O)cc(Cl)c2Cl)c(O)c1 [Compound 1-15]
- fold loss of potency against Mcl-1/Bim (Mcl-1/Bim): 8.7 fold
- IC50 (Mcl-1/Bim; [3]): 6.1 ± 1.3 µM
- IC50 (Mcl-1/Bim; [1]): 6.1 ± 1.3 µM
- selectivity profile Mcl-1 vs Bcl-xL in words (Mcl-1/Bim): much more selective for Mcl-1 over Bcl-xL
- selectivity for Mcl-1 over Bcl-xL (Mcl-1/Bim over Bcl-xL/Bim) (Mcl-1/Bim): over 16 fold
- IC50 (Mcl-1/Bim; read-out: IC50 to disrupt Mcl-1/Bim binding): 6.1 µM
- IC50 (Bcl-xL/Bim; [5]): > 100 µM
- IC50 (Bcl-xL/Bim; [4]): > 100 µM
- IC50 (Bcl-xL/Bim; [2]): > 100 µM

Structure (SMILES): CCOC(=O)Cn1cc(-c2cc(O)c(C(=O)c3[nH]c(Cl)c(Cl)c3-n3c(C(=O)c4cc(Cl)c(-c5cn(CC(=O)OCC)nn5)cc4O)cc(Cl)c3Cl)cc2Cl)nn1 [Compound 1-17, Diethyl 2,2′-(4,4′-((4,4′,5,5′-tetrachloro-1′H-1,3′-bipyrrole-2,2′-dicarbonyl)bis(2-chloro-5-hydroxy-4,1-phenylene))bis(1H-1,2,3-triazole-4,1-diyl))diacetate]
- IC50 (Mcl-1/Bim; [6]): 7.8 ± 1.5 µM
- IC50 (Mcl-1/Bim; [7]): 7.8 ± 1.5 µM
- selectivity for Mcl-1 over Bcl-xL (Mcl-1/Bim over Bcl-xL/Bim) (Mcl-1/Bim): 12.9 fold
- IC50 (Mcl-1/Bim; [8]): 7.8 µM
- activity against Bcl-xL/Bim in words (Bcl-xL/Bim): not active
- IC50 (Bcl-xL/Bim; [9]): > 100 µM
- IC50 (Bcl-xL/Bim; [10]): > 100 µM

Structure (SMILES): CCOC(=O)Cn1cc(-c2ccc(C(=O)c3[nH]c(Cl)c(Cl)c3-n3c(C(=O)c4ccc(-c5cn(CC(=O)OCC)nn5)cc4O)cc(Cl)c3Cl)c(O)c2)nn1 [Compound 1-24, Diethyl 2,2′-(4,4′-((4,4′,5,5′-tetrachloro-1′H-1,3′-bipyrrole-2,2′-dicarbonyl)bis(3-hydroxy-4,1-phenylene))bis(1H-1,2,3-triazole-4,1-diyl))diacetate]
- IC50 (Mcl-1/Bim; [6]): 18.4 ± 0.3 µM
- IC50 (Mcl-1/Bim; [7]): 18.4 ± 0.3 µM
- selectivity for Mcl-1 over Bcl-xL (Mcl-1/Bim over Bcl-xL/Bim) (Mcl-1/Bim): 5.4 fold
- IC50 (Mcl-1/Bim; [8]): 18.4 µM
- activity against Bcl-xL/Bim in words (Bcl-xL/Bim): not tolerated; also recorded: not active
- IC50 (Bcl-xL/Bim; [9]): > 100 µM
- IC50 (Bcl-xL/Bim; [10]): > 100 µM

Structure (SMILES): O=C(O)Cn1cc(-c2ccc(C(=O)c3[nH]c(Cl)c(Cl)c3-n3c(C(=O)c4ccc(-c5cn(CC(=O)O)nn5)cc4O)cc(Cl)c3Cl)c(O)c2)nn1 [Compound 1-26, 2,2′-(4,4′-((4,4′,5,5′-Tetrachloro-1′H-1,3′-bipyrrole-2,2′-dicarbonyl)bis(3-hydroxy-4,1-phenylene))bis(1H-1,2,3-triazole-4,1-diyl))diacetic acid]
- IC50 (Mcl-1/Bim; [6]): 16.5 ± 1.9 µM
- IC50 (Mcl-1/Bim; [7]): 16.5 ± 1.9 µM
- selectivity for Mcl-1 over Bcl-xL (Mcl-1/Bim over Bcl-xL/Bim) (Mcl-1/Bim): 3.0 fold
- IC50 (Mcl-1/Bim; [8]): 16.5 µM
- activity against Bcl-xL/Bim in words (Bcl-xL/Bim): not tolerated; also recorded: not active
- IC50 (Bcl-xL/Bim; [9]): > 50 µM
- IC50 (Bcl-xL/Bim; [10]): > 50 µM

Structure (SMILES): O=C1c2ccc(OS(=O)(=O)C(F)(F)F)cc2Oc2c(Cl)cc(C(=O)c3ccc(OS(=O)(=O)C(F)(F)F)cc3O)n2-c2c1[nH]c(Cl)c2Cl [IV-1, 3-Hydroxy-4-(2,3,7-trichloro-13-oxo-10-(((trifluoromethyl)sulfonyl)oxy)-1,13 dihydrobenzo[g]di-pyrrolo[2,1-b:3′,2′-d][1,3]oxazocine-5-carbonyl)phenyl trifluoromethanesulfonate]
- IC50 (Mcl-1/Bim; [11]): 1.4 ± 0.3 µM
- fold more potent than (±)-1 (1) against Mcl-1/Bim (Mcl-1/Bim): six
- IC50 (Bcl-xL/Bim; [12]): 2.3 ± 1.1 µM
- fold more potent than (±)-1 (1) against Bcl-xL/Bim (Bcl-xL/Bim): seven-fold

Structure (SMILES): O=C1c2ccc(O)cc2Oc2c(Cl)cc(C(=O)c3ccc(O)cc3O)n2-c2c1[nH]c(Cl)c2Cl [IV-2, 2,3,7-Trichloro-5-(2,4-dihydroxybenzoyl)-10-hydroxybenzo[g]dipyrrolo[2,1-b:3′,2′-d][1,3]oxazo-cin-13(1H)-one]
- IC50 (Mcl-1/Bim; [11]): 42.5 ± 6 µM
- IC50 (Mcl-1/Bim; [3]): 8 ± 1.6 µM
- IC50 (Mcl-1/Bim; [13]): 8 ± 1.6 µM
- selectivity profile Mcl-1 vs Bcl-xL in words (Mcl-1/Bim): dual Mcl-1 and BclxL antagonists
- IC50 (Bcl-xL/Bim; [12]): > 100 µM
- IC50 (Bcl-xL/Bim; [5]): 9.5 ± 2.2 µM
- IC50 (Bcl-xL/Bim; [14]): 9.5 ± 2.2 µM

Structure (SMILES): COC(=O)c1ccc(C(=O)c2cc(Cl)c3n2-c2c([nH]c(Cl)c2Cl)C(=O)c2ccc(C(=O)OC)cc2O3)c(O)c1 [IV-3, Methyl-2,3,7-trichloro-5-(2-hydroxy-4-(methoxycarbonyl)benzoyl)-13-oxo-1,13-dihydrobenzo[g]-dipyrrolo[2,1-b:3′,2′-d][1,3]oxazocine-10-carboxylate]
- IC50 (Mcl-1/Bim; [11]): 4.3 ± 1.5 µM
- IC50 (Mcl-1/Bim; [3]): 4.1 ± 1.4 µM
- IC50 (Mcl-1/Bim; [13]): 4.1 ± 1.4 µM
- fold more potent than (±)-1 (1) against Mcl-1/Bim (Mcl-1/Bim): two-fold
- activity against Bcl-xL/Bim in words (Bcl-xL/Bim): slight increase in potency
- IC50 (Bcl-xL/Bim; [12]): 3.4 ± 0.9 µM
- IC50 (Bcl-xL/Bim; [5]): 10.1 ± 2.2 µM
- IC50 (Bcl-xL/Bim; [14]): 10.1 ± 2.2 µM
- fold more potent than (±)-1 (1) against Bcl-xL/Bim (Bcl-xL/Bim): seven-fold

Structure (SMILES): O=C(O)c1ccc(C(=O)c2cc(Cl)c3n2-c2c([nH]c(Cl)c2Cl)C(=O)c2ccc(C(=O)O)cc2O3)c(O)c1 [IV-4, 5-(4-Carboxy-2-hydroxybenzoyl)-2,3,7-trichloro-13-oxo-1,13-dihydrobenzo[g]dipyrrolo[2,1-b:3′,2′-d][1,3]oxazocine-10-carboxylic acid]
- IC50 (Mcl-1/Bim; [11]): 66.6 ± 2.6 µM
- IC50 (Mcl-1/Bim; [3]): 3.9 ± 1.1 µM
- IC50 (Mcl-1/Bim; [13]): 3.9 ± 1.1 µM
- IC50 (Bcl-xL/Bim; [12]): > 100 µM
- IC50 (Bcl-xL/Bim; [5]): 18.3 ± 3 µM
- IC50 (Bcl-xL/Bim; [14]): 18.3 ± 3 µM
